The test system of data set [1] is MCF-7 cells. The experiment in a line: Modified protocol with MCF-7 cells preloaded with CytoCalcein Violet. In kind it is cell-based, human. The note with it: for concentration permeabilizing only the plasma (cytoplasmic) membrane: loss of CytoCalcein Violet. As for the experimental part:
FIG. 4. Modified Protocol to Assess the Permeabilization of the Plasma Membrane with MCF-7 Cells. The cells were preloaded with CytoCalcein Violet, and cytoplasmic membrane permeabilization is indicated by the loss of this signal. In this experiment, 0.025% Digitonin or TX-100 permeabilized only the cytoplasm, while 0.25% of either fully permeabilized the both cytoplasmic and nuclear membranes.
In this experiment, after the cells had been plated for 24 hours, they were preloaded for 1 hour with 1 μM CytoCalcein Violet and then processed as indicated in FIG. 3. When the samples were ready for cover-slipping, mounting medium without DAPI was used. Images were captured on a Zeiss Axioskop 2 Plus microscope together with a 63× oil-immersion lens. In this figure, MCF-7 cells that were not permeabilized can be seen to be loaded with CytoCalcein Violet, and this staining is lost once the plasma membrane is permeabilized. […] In this experiment, 0.025% of both Digitonin and TX-100 can be seen to permeabilize the plasma membrane, while 0.25% of both can be seen to permeabilize the whole cell. This modified protocol was used for subsequent testing of the performance of the different detergents with whole blood and PBMCs by flow cytometry, including for the results in FIG. 2.

For data set [2], the system named is T cells and monocytes in PBMCs. Nature of the data set: Digitonin and TX-100 titration on PBMCs, flow cytometry (CytoCalcein Violet loss, HDAC1 staining). The class given is cell-based. The note with it: for concentration at which the nucleus is also permeabilized: peaked HDAC1 staining. The text has this: (§1) FIGS. 2A and 2B. Digitonin and TX-100 Titrations to Determine the Optimal Concentrations for Cytoplasmic vs. Nuclear Membrane Permeabilization. A) The cytoplasmic membrane in whole blood is fully permeabilized around 0.031% Digitonin, while the nucleus is also permeabilized around 0.5% Digitonin or 0.125% TX-100. B) The cytoplasmic membrane in PBMCs is fully permeabilized around 0.0016% Digitonin, while the nucleus is also permeabilized around 0.05% Digitonin or 0.025% TX-100. In this figure, the reduction in Calcein signal is indicative of permeabilization of the plasma membrane, while the peaked HDAC1 staining indicates complete nuclear permeabilization. The ledge that forms with HDAC1 prior to complete lysis is due to lysis of the endoplasmic reticulum, which also contains HDAC1.
(§2) FIG. 2 is a comparison of the efficiency of cytoplasmic vs. nuclear permeabilization of T cells and monocytes by different concentrations of Digitonin or TX-100. FIG. 2A is a titration performed on whole blood, while FIG. 2B is a titration performed on PBMCs. In both cases, the samples were first preloaded for 1 hour with 1 μM CytoCalcein Violet (AAT Bioquest, Inc) in a CO2-regulated 37° C. incubator. After 1 hour, the samples were fixed for 10 min with 4% PFA, and then incubated for 30 min at RT with the different concentrations of detergents diluted in diH2O, at a 1:5 ratio with the sample mixture. The samples were then washed and stained with anti-HDAC1-FITC (Abcam, Plc), washed again, and finally read on a Gallios flow cytometer (BCI). In this figure, cytoplasmic lysis is indicated by the loss of CytoCalcein Violet signal as it is released from the cell once the plasma membrane is permeabilized, while nuclear lysis is indicated by the increased HDAC1 signal as the nuclear membrane is permeabilized. In the case of Digitonin lysis, there is a ledge of HDAC1 staining once the plasma membrane is lysed and prior to full nuclear lysis; this is indicative of lysis of the endoplasmic reticulum, which also contains a repository of HDAC1. In whole blood, there is a working range for Digitonin between roughly 0.015% and 0.125%, where the plasma membrane is lysed, but the nucleus is not. For PBMCs, this range is roughly between 0.001% and 0.0125%.

The test system of data set [3] is Lymphocytes and Monocytes in whole blood. Nature of the data set: Performance of detergents with whole blood (alternative approaches). In kind it is cell-based. The settings on record: for concentration at which surface markers are lost and cells disintegrate: Buffer 2 upper bound. The procedure: An exemplary kit is composed of two separate buffers for whole-blood mononuclear cells (i.e., lymphocytes+monocytes): 1) The first buffer is to permeabilize the cytoplasm, including the ER, the endosomal system, and the outer mitochondrial membrane, while 2) the second buffer is to permeabilize everything permeabilized by the first buffer, plus the nucleus (and, in some embodiments, the inner mitochondrial matrix). Buffer 1 (Cytoplasm) may be composed of: 1-100 mM MES pH 4.5-6.5, 0-274 mM NaCl, 0-5.4 mM KCl, and 0.01-0.15% Digitonin. The optimal detergent concentration for Buffer 1 is between […] Digitonin, where the cytoplasm is lysed but the nucleus is not. Buffer 2 (Whole Cell) may be composed of: 1-100 mM MES pH 4.5-6.5, 0-274 mM NaCl, 0-5.4 mM KCl, and >0.01% Digitonin or >0.0125% Triton X-100. The optimal detergent concentration for Buffer 2 depends on the sample type, with the upper bound limited by the loss of surface markers and the disintegration of cells that occurs around 2% for both.
The methods of the invention rely on different detergents or detergent concentrations in order to gently lyse the cytoplasm plus as many cytoplasmic components as possible in one tube, and the whole cell including the nucleus in the other tube. For this reason, a variety of detergents will work to accomplish this task. Some are as follows, with reference to their performance with whole blood: […]

Data set [4] concerns T cells and monocytes in whole blood. The experiment in a line: Optimal lysis parameters for whole blood in MES-buffered solution (HSP60, Lamin A/C). The class given is cell-based. The settings on record: 5% fixative. The text has this:
FIGS. 5A and 5B. Cytoplasmic vs. Nuclear Membrane Permeabilization in a Whole Blood Sample using the Optimal Buffer Compositions. A) The CD45 vs. SS and FS vs. SS profiles of the samples after lysis. B) The degree of mitochondrial vs. nuclear membrane permeabilization in T cells. C) The degree of mitochondrial vs. nuclear membrane permeabilization in Monocytes. All of the detergent concentrations used in this experiment fully permeabilized the plasma membrane, while HSP60 and Lamin A/C indicate the degree of mitochondrial inner membrane and nuclear membrane permeabilization, respectively.
FIG. 5 indicates the optimal lysis parameters for whole blood, including modified buffer conditions in order to improve RBC lysis. […] In order to improve RBC lysis, the solution was ultimately buffered with MES at a pH between 4.5-6.5 (such as a pH of 5.5), which also allowed the salt concentration to be increased to physiological levels. This further improved the scatter profiles of the WBCs, decreased the time required for complete lysis to approximately 15 minutes, and improved the RBC lysis efficiency to the point that the buffers still work well if the fixation time is extended well beyond protocol (>20 min). At the same time, the fixative concentration was increased to 5% due to improved performance. In FIG. 5A, the scatter profiles for the optimal lysis parameters can be seen, where 0.0625% Digitonin is optimal for cytoplasmic membrane permeabilization, and either 0.5% Digitonin or 0.25% TX-100 are optimal for whole-cell membrane permeabilization. […] In both cases, the permeabilization profiles can be seen to be consistent with the defined optimal detergent concentrations.

Data set [5] has the same test system. Nature of the data set: Digitonin and TX-100 titration on whole blood, flow cytometry (CytoCalcein Violet loss, HDAC1 staining). In kind it is cell-based. The settings on record: for concentration at which the nucleus is also permeabilized: peaked HDAC1 staining.
Excerpt: as §1, §2

In data set [6] the test system is CREB, RelA and ERK phosphorylation in monocytes. Nature of the data set: Stimulation of monocytes with LPS or GM-CSF, cytoplasmic vs. nuclear signaling. The class given is cell-based. The settings on record: 1 μg/mL LPS or 100 ng/mL GM-CSF. The procedure: FIG. 8. Differential Signaling in Monocytes Induced by 1 μg/mL LPS vs. 100 ng/mL GM-CSF. A) Both LPS and GM-CSF induced CREB phosphorylation at S133, accumulating maximally in the nucleus by 10 min. B) LPS stimulation induced RelA phosphorylation maximally by 10 min in both the cytoplasm and nucleus, though predominantly in the nucleus. C) Both LPS and GM-CSF stimulated ERK phosphorylation primarily in the cytoplasm, maximally by 5 min for GM-CSF and 10 min for LPS.
The protocol for processing whole blood samples is as follows (see FIG. 1 for a workflow): 1) The sample is first mixed 1:1 with fixative, vortexed, and then incubated for 10 minutes. An extra control tube is included for each buffer, which is stained with all antibodies except for the specific signaling or target antibodies being tested in order to subtract the background signal. The background control may also be labeled with isotype-control antibodies for more precise determination of non-specific binding, especially in cells that have characteristically high non-specific binding, such as neutrophils. For indirect antibody labeling, omitting the primary antibody, but still utilizing the secondary antibody, is a common method for determining the degree of non-specific background signal attributable to the secondary antibody, which is typically higher than the direct conjugates of target antibodies. […] 6) Once stained, the samples are again washed 2× with PBS or wash buffer, resuspended in PBS+0.5% PFA, and read on a flow cytometer.
After data acquisition, the samples are gated, compensated, and analyzed as standard flow cytometry samples. […] For example, if staining for the subcellular distribution of FoxP3, where the Background MFIs for the Cytoplasm and Whole Cell are 1.5 and the raw FoxP3 signal is 3.5 and 31.5 for the Cytoplasm and Whole Cell, respectively, then the Cytoplasmic MFI would be calculated to be 2 (i.e., 3.5 (raw)−1.5 (background)=2) and the Nuclear MFI would be calculated to be 28 (i.e., 31.5 (raw)−1.5 (background)−2 (Cytoplasm)=28). […]

The nature of data set [7]: Precipitation of detergent from solution at reduced pH. In kind it is physicochemical. The settings on record: regardless of the concentration. The text has this: However, the performance of CHAPS decreases at lower pHs, and Sodium Deoxycholate immediately precipitates out of solution at pHs lower than ˜7.0 regardless of the concentration. Therefore, these may be useful for PBMCs or cell lines where a reduced pH is not necessary, but not for whole blood.

The text below walks through data of patent US20190079094A1, “SUBCELLULAR LOCALIZATION OF TARGET ANALYTES” (Beckman Coulter, Inc., priority 2016, published 2019).

Entries after “also recorded” stand apart in the source; their conditions may differ.

With ethyoxylated octylphenol [TX-100], in data set [1], the “concentration permeabilizing the whole cell (cytoplasmic and nuclear membranes)” value is on record as 0.25%; the “concentration permeabilizing only the plasma (cytoplasmic) membrane” value was 0.025%. Also, in data set [2], the “concentration for complete lysis of the cells” value (“concentration … of the cells” below) is 0.025% and the “concentration at which the nucleus is also permeabilized” value is listed as about 0.025%. For the same compound, the “concentration at which surface markers are lost and cells disintegrate” value in data set [3] was “around 2%”. The “optimal concentration for whole-cell membrane permeabilization” value in data set [4] turned out to be 0.25%. For the same compound, in data set [5], the “concentration … of the cells” value is 0.125%, the “working range where the plasma membrane is lysed but the nucleus is not” value was “does not provide this working range” and the “concentration at which the nucleus is also permeabilized” value is given as about 0.125%.
For GM-CSF: cytokine activator reagent, the “time of peak RelA S536 phosphorylation” value in data set [6] was “did not stimulate RelA phosphorylation at S536”. For the same compound, the “time of peak ERK phosphorylation (S202/T204)” value in data set [6] (primarily cytoplasm) is recorded as at most 5 min.
`C[C@@H]1CC[C@@]2(OC1)O[C@H]1[C@@H](O)[C@H]3[C@@H]4CC[C@H]5C[C@@H](O[C@@H]6O[C@H](CO)[C@H](O[C@@H]7O[C@H](CO)[C@@H](O)[C@H](O[C@@H]8OC[C@@H](O)[C@H](O)[C@H]8O)[C@H]7O[C@@H]7O[C@H](CO)[C@H](O)[C@H](O[C@@H]8O[C@H](CO)[C@@H](O)[C@H](O)[C@H]8O)[C@H]7O)[C@H](O)[C@H]6O)[C@H](O)C[C@]5(C)[C@H]4CC[C@]3(C)[C@H]1[C@@H]2C` [Digitonin]: in data set [1], the “concentration permeabilizing the whole cell (cytoplasmic and nuclear membranes)” value was 0.25%; the “concentration permeabilizing only the plasma (cytoplasmic) membrane” value is given as 0.025%. Moreover, in data set [2], the “concentration … of the cells” value is 0.025% and the “concentration at which the nucleus is also permeabilized” value is “around 0.05%”. For the same compound, the “concentration at which the cytoplasmic membrane is fully permeabilized” value in data set [2] (reduction in Calcein signal) is recorded as “around 0.0016%”. Also, the “concentration at which surface markers are lost and cells disintegrate” value in data set [3] is recorded as “around 2%”. In addition, in data set [4], the “optimal concentration for cytoplasmic membrane permeabilization” value is 0.0625% and the “optimal concentration for whole-cell membrane permeabilization” value was determined as 0.5%. In addition, in data set [5], the “concentration … of the cells” value is 0.25% and the “concentration at which the nucleus is also permeabilized” value is given as “around 0.5%”. Besides, in data set [5] (reduction in Calcein signal), the “concentration at which the cytoplasmic membrane is fully permeabilized” value is “around 0.031%”.
Regarding Sodium Deoxycholate, in data set [7], the “pH below which the detergent immediately precipitates out of solution” value was under 7.0.
Regarding “Octylphenoxypoly(ethylene-oxy)ethanol [NP-40]”, the “performance compared with TX-100” value in data set [3] (whole blood) is given as “performs equivalently to TX-100; also recorded: interchangeable with TX-100 for whole-cell permeabilization”.
